Assay results reported in patent US12280212B2, “Method and apparatus for simultaneously administering oxygen, and metered dose inhaler medication by inhalation” (priority 2019, dated 2025).

Assay: MDI inserted through a port into an oxygen mask without extender tube at 2-15 L/min oxygen flow, measured blood levels
Assay type: in vivo, patient
Settings: 2-15 L/min oxygen flow (wash-out)
Text: The relatively high flow oxygen jet disperses the drug aerosol initially expressed into the mask from the MDI that was inserted into the mask, and as a result, much of the drug is dispersed around the interior of the mask and is washed out of the mask and back out through the MDI housing to ambient by the flow of oxygen, rather than being inhaled by the patient.
In this invention, an extender tube 300 (FIG. 12) is provided that can be inserted into or over the mouthpiece section 230 of an MDI body (FIGS. 8A, 8B, and 9). […] This use of the tube to channel the inhalable medication from an MDI to the mouth of the patient addresses the problem noted above that simply inserting an MDI mouthpiece into a mask with a flow of oxygen causes “wash-out” of the drug, i.e., the drug aerosol or particles (i.e., the discharge from an MDI) are dispersed within the mask and out to ambient, and as a result measured drug levels inhaled by the patient are very low. In the instant invention, measured drug levels of the MDI drug in the lung are high.

CC(C)(C)NCC(O)c1ccc(O)c(CO)c1 (stereo not shown) [albuterol HFA, albuterol]
measured blood levels of the albuterol drug: negligible
